What was measured:
[1] = test system: chemically regulatable chimeric genes coding for GUS, AHAS or BT; assay: Primer extension assay for mRNA of chemically regulatable chimeric genes; type: in vivo; settings: callus or regenerated plant material from transgenic plants; level proportional to amount of regulator applied
Protocol: 50 g of total RNA is lyophilized in a 500 l Eppendorf tube. The RNA is resuspended in 30 l of radiolabeled probe solution and heated to 70′ C. for 10 minutes. The tube is slowly cooled to 37° C. and allowed to incubate overnight. Without removing the tube from the 37° C. water bath, 2 l of 10×reverse-transcriptase buffer (500 mM Tris-HCl, pH 7.5, 400 mM KCl, 30 mM MgCl2), 1 l 5 mg/ml bovine serum albumin, 5 l 100 mM dithiothreitol, 5 l 10×dNTPs (10 mM of each dNTP in H2O), 3 l H 20, 2 l RNasin (80 units), and 2 l reverse transcriptase (400 units) are added and the reaction is incubated at 37° C. for 30 minutes. To stop the reaction, 5 l of 3 M sodium acetate, pH 5, and 150 l absolute ethanol are added. The tube is left at −20° C. for 30 minutes, the precipitate is collected by centrifugation, washed with 80% ethanol and allowed to air-dry. The precipitate is resuspended in 10-20 l of loading dye (90% formamide, 0.05% bromophenol blue, 0.05% xylene cyanol, 1 mM EDTA) and the extension products are separated on a 6% sequencing gel (Maniatis, T. et al., supra). Extension products are visualized by autoradiography.
Plant materials induced and harvested as in Examples 140 to 142 are assayed for the induction of mRNA species by the isolation of RNA and the primer extension assay as described in Example 6.
The level of mRNA is proportional to the amount of regulator applied.

[2] = test system: cucumber chitinase protein; assay: Cucumber chitinase ELISA in transgenic plants carrying cucumber chitinase genomic constructs after leaf treatment; type: in vivo, tobacco; set-up: key: —: Indicates that sample has no detectable level of chitinase protein
Protocol: Once the transgenic plants are transferred to soil, they are grown 4-5 weeks before treatment. The following solutions are applied to the leaves with sterile paintbrushes:
3. Methyl benzo-1,2,3-thiadiazole-7-carboxylate. The solution is made by resuspending a wettable powder containing a formulation of the chemical with 25% active ingredient in sterile water at a concentration of 1 mg/ml.
4. Methyl 2,6-dichloroisonicotinate, prepared as above. Alternatively, 30 ul of 10 mM sodium phosphate buffer, pH 7.0, or 30 ul of the same buffer containing tobacco mosaic virus (50-100 pfu/30 ul) is applied to the leaves which have been sprinkled with carborundum. The buffers are distributed over the whole treated leaf by gentle rubbing.
The plants are allowed to continue to grow for seven days. The treated leaves are then harvested, frozen in liquid nitrogen and stored at −80° C. until they are assayed.
Frozen leaf tissue is ground in a mortar with a pestle in the presence of liquid nitrogen to produce a fine powder. 0.33 g of each tissue sample is added to 1 ml extraction buffer (50 mM Tris-HCl, pH 8.5, 0.2M 2-mercaptoethanol, 2 mM phenyl methyl sulfonyl fluoride, 2 mM benzamidine, 10 mM epsilon-aminocaproic acid, 1 mM leueptine) and the sample homogenized for one minute with an Ultra Turrax Mixer (shaft #S25N-8G, Tekmar Co. Cincinnati, Ohio). The samples are then centrifuged at 48,000×g for fifteen minutes at 4° C. and the supernatant removed from the pelleted material. The extracts are diluted at least 1:50 in ELISA diluent (101 mM sodium phosphate, pH 7.4, 140 mM sodium chloride, 0.05% Tween 20, 0.02% sodium azide, 1% BSA).
A microtiter plate is coated with monoclonal antibody specific to the cucumber chitinase protein at 2 ug/ml in borate-buffered saline (100 mM boric acid, 25mM sodium borate, 75 mM sodium chloride; pH 8.5) using 50 ul per well. The plate is incubated overnight at 4° C. The plate is washed with ELISA wash buffer (10 mM Tris-HCl, pH 8.0, 0.05% Tween 20, 3 mM sodium azide) and BSA blocking solution (10 mM sodium phosphate, pH 7.4, 140 mM sodium chloride, 0.02% sodium azide, 1% BSA) is added to completely cover each well. Incubation is for at least 30 minutes at room temperature.
The microtiter plate is washed with ELISA wash buffer and 50 ul of extract is added to the appropriate well. 50 ul of each of 10 chitinase protein standards (ranging from 0 ng/ml to 31.64 ng/ml) was also added to the appropriate well and the plate is incubated for two hours at 4° C. The plate is washed with ELISA wash buffer and 50 ul of rabbit polyclonal antibody to the cucumber chitainase protein (diluted 1:15,000 in ELISA diluent) is added to the well and incubated for one hour at 37° C. After washing with ELISA wash buffer, 50 ul of goat anti-rabbit conjugated to alkaline phosphatase (1:500 in ELISA diluent) is added to each well and incubated at 37° C. for one hour. The plate is then washed and 50 ul alkaline phosphatase substrate solution (0.6 mg/ml p-nitrophenyl phosphate in 0.5 mM magnesium chloride and 10% diethanolamine) is added to each well. After a 30 minute incubation at room temperature, 50 ul of 3N sodium hydroxide is added to each well to stop the reaction.
The plate is read at 405 nm and 492 nm on an HP Genenchem ELISA plate reader. The output values are expressed as A(405 nm)-A(492 nm)−0.092 to allow for correction of p-nitrophenyl phosphate as substrate. The chitinase standards for each plate are graphed logarithmically. The amount of chitinase protein in each sample is determined from the standard curve. If the amount of chitinase in any sample is close to the upper limit of the curve, the sample is assayed again at a greater dilution. Final results are expressed in the table below in ug chitinase per gram tissue.

`COC(=O)c1cccc2nnsc12` [Methyl benzo-1,2,3-thiadiazole-7-carboxylate] was tested, and the “level of mRNA of the chimeric gene (GUS, AHAS or BT primer), primer extension assay” value [1] was “elevated levels of mRNA”, the “ELISA ASSAY RESULTS (ug chitinase/g tissue)” value (shortened to “ELISA ASSAY RESULTS”) ([2]; line Bam-1 (2001/BamChit), leaves harvested after seven days, water 0.066, buffer —) was 3.000 ug chitinase/g tissue and the “ELISA ASSAY RESULTS” value ([2]; line Bam-3 (2001/BamChit), seven days, water —, buffer —) was 0.504 ug chitinase/g tissue. For the same compound, the “ELISA ASSAY RESULTS” value ([2]; line Bam-4 (2001/BamChit), seven days, water —, buffer —) was “—”, the “ELISA ASSAY RESULTS” value ([2]; line Bam-8 (2001/BamChit), seven days, water —, buffer —) was “—” and the “ELISA ASSAY RESULTS” value ([2]; line Bam-9 (2001/BamChit), seven days, water —, buffer —) was 33.885 ug chitinase/g tissue. For the same compound, the “ELISA ASSAY RESULTS” value ([2]; line Bam-10 (2001/BamChit), seven days, water 0.059, buffer 0.084) was 25.182 ug chitinase/g tissue, the “ELISA ASSAY RESULTS” value ([2]; line Bam-12 (2001/BamChit), seven days, water —, buffer —) was 1.349 ug chitinase/g tissue and the “ELISA ASSAY RESULTS” value ([2]; line Bam-14 (2001/BamChit), seven days, water —, buffer —) was 0.541 ug chitinase/g tissue. For the same compound, the “ELISA ASSAY RESULTS” value ([2]; line Bam-15 (2001/BamChit), seven days, water —, buffer —) was 3.366 ug chitinase/g tissue, the “ELISA ASSAY RESULTS” value ([2]; line Bam-16 (2001/BamChit), seven days, water —, buffer —) was 18.849 ug chitinase/g tissue and the “ELISA ASSAY RESULTS” value ([2]; line Bam-17 (2001/BamChit), seven days, water —, buffer —) was 2.997 ug chitinase/g tissue. For the same compound, the “ELISA ASSAY RESULTS” value ([2]; line Bam-19 (2001/BamChit), seven days, water —, buffer —) was 0.998 ug chitinase/g tissue, the “ELISA ASSAY RESULTS” value ([2]; line Bam-21 (2001/BamChit), seven days, water —, buffer —) was “—” and the “ELISA ASSAY RESULTS” value ([2]; line Bam-23 (2001/BamChit), seven days, water —, buffer —) was 0.782 ug chitinase/g tissue. For the same compound, the “ELISA ASSAY RESULTS” value ([2]; line Bam-24 (2001/BamChit), seven days, water —, buffer —) was 0.88 ug chitinase/g tissue, the “ELISA ASSAY RESULTS” value ([2]; line Bam-25 (2001/BamChit), seven days, water —, buffer —) was 18.145 ug chitinase/g tissue and the “ELISA ASSAY RESULTS” value ([2]; line Bam-26 (2001/BamChit), seven days, water —, buffer —) was 0.676 ug chitinase/g tissue. The “ELISA ASSAY RESULTS” value ([2]; line Nco-2 (2001/NcoChit), seven days, water —, buffer —) was “—”, the “ELISA ASSAY RESULTS” value ([2]; line Nco-3 (2001/NcoChit), seven days, water —, buffer —) was “—” and the “ELISA ASSAY RESULTS” value ([2]; line Nco-5 (2001/NcoChit), seven days, water —, buffer —) was “—”. For the same compound, the “ELISA ASSAY RESULTS” value ([2]; line Nco-8 (2001/NcoChit), seven days, water —, buffer —) was “—”, the “ELISA ASSAY RESULTS” value ([2]; line Nco-9 (2001/NcoChit), seven days, water —, buffer —) was “—” and the “ELISA ASSAY RESULTS” value ([2]; line Nco-10 (2001/NcoChit), seven days, water —, buffer —) was 0.047 ug chitinase/g tissue. The “ELISA ASSAY RESULTS” value ([2]; line Nco-11 (2001/NcoChit), seven days, water —, buffer —) was “—”, the “ELISA ASSAY RESULTS” value ([2]; line Nco-15 (2001/NcoChit), seven days, water —, buffer —) was “—” and the “ELISA ASSAY RESULTS” value ([2]; line Nco-16 (2001/NcoChit), seven days, water 0.555, buffer 0.566) was 0.784 ug chitinase/g tissue. For the same compound, the “ELISA ASSAY RESULTS” value ([2]; line Nco-17 (2001/NcoChit), seven days, water —, buffer —) was “—”, the “ELISA ASSAY RESULTS” value ([2]; line Sal-2 (2001/SalChit), seven days, water —, buffer —) was 0.117 ug chitinase/g tissue and the “ELISA ASSAY RESULTS” value ([2]; line Sal-3 (2001/SalChit), seven days, water —, buffer —) was 0.060 ug chitinase/g tissue. The “ELISA ASSAY RESULTS” value ([2]; line Sal-4 (2001/SalChit), seven days, water —, buffer —) was 0.537 ug chitinase/g tissue, the “ELISA ASSAY RESULTS” value ([2]; line Sal-5 (2001/SalChit), seven days, water —, buffer —) was 0.229 ug chitinase/g tissue and the “ELISA ASSAY RESULTS” value ([2]; line Sal-7 (2001/SalChit), seven days, water —, buffer —) was 0.377 ug chitinase/g tissue. For the same compound, the “ELISA ASSAY RESULTS” value ([2]; line Sal-8 (2001/SalChit), seven days, water —, buffer —) was “—”, the “ELISA ASSAY RESULTS” value ([2]; line Sal-9 (2001/SalChit), seven days, water —, buffer —) was 0.553 ug chitinase/g tissue and the “ELISA ASSAY RESULTS” value ([2]; line Sal-11 (2001/SalChit), seven days, water —, buffer —) was “—”. The “ELISA ASSAY RESULTS” value ([2]; line Sal-12 (2001/SalChit), seven days, water —, buffer —) was “—”, the “ELISA ASSAY RESULTS” value ([2]; line Sal-13 (2001/SalChit), seven days, water —, buffer —) was “—” and the “ELISA ASSAY RESULTS” value ([2]; line Sal-14 (2001/SalChit), seven days, water —, buffer —) was “—”. For the same compound, the “ELISA ASSAY RESULTS” value ([2]; line Sal-15 (2001/SalChit), seven days, water —, buffer —) was 0.038 ug chitinase/g tissue.

From patent publication US6632981B1, “DNA sequences encoding polypeptides having beta-1,3-glucanase activity” (Novartis Finance Corporation, priority 1988, dated 2003)
